Source: PubChem BioAssay (NCI)
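Tested at 5 concentrations; 48 h exposure; 96-well plates; endpoints linearly interpolated, else capped at highest concentration. TGI is the concentration that stops growth completely.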

Legend:
Test in all cases: growth of human tumour cells (NCI), 48 h
OVCAR-5 ovarian = test system: OVCAR-5 ovarian
MDA-MB-435 = test system: MDA-MB-435
SF-539 CNS = test system: SF-539 CNS
MOLT-4 leukemia = test system: MOLT-4 leukemia
OVCAR-4 ovarian = test system: OVCAR-4 ovarian
MCF7 breast = test system: MCF7 breast
UO-31 renal = test system: UO-31 renal
SR leukemia = test system: SR leukemia
TK-10 renal = test system: TK-10 renal
SK-OV-3 ovarian = test system: SK-OV-3 ovarian
SW-620 colon = test system: SW-620 colon
M14 melanoma = test system: M14 melanoma
UACC-62 melanoma = test system: UACC-62 melanoma

| SMILES | TGI (OVCAR-5 ovarian) [µM] | TGI (MDA-MB-435) [µM] | TGI (SF-539 CNS) [µM] | TGI (MOLT-4 leukemia) [µM] | TGI (OVCAR-4 ovarian) [µM] | TGI (MCF7 breast) [µM] | TGI (UO-31 renal) [µM] | TGI (SR leukemia) [µM] | TGI (TK-10 renal) [µM] | TGI (SK-OV-3 ovarian) [µM] | TGI (SW-620 colon) [µM] | TGI (M14 melanoma) [µM] | TGI (UACC-62 melanoma) [µM] |
| --- | --- | --- | --- | --- | --- | --- | --- | --- | --- | --- | --- | --- | --- |
| O=C(CCCC(=O)N1CC(CCl)c2ccc([N+](=O)[O-])cc21)N1CC(CCl)c2ccc([N+](=O)[O-])cc21 (stereo not given) | > 100 | > 100 | > 100 | > 100 | > 100 | > 100 | > 100 | 60.5 | > 100 | > 100 | > 100 | > 100 | > 100 |
| COc1nc2c(c(=O)n1C)N[C@@H]1[C@@H](O)[C@H](O)CO[C@@H]1N2 | > 100 | > 100 | > 100 | > 100 | > 100 | > 100 | > 100 | > 100 | > 100 | > 100 | > 100 | > 100 | > 100 |
| Cn1c(N/N=C/c2ccc(Cl)cc2)nc(-c2ccc(Cl)cc2)c(C#N)c1=O | 51.1 | > 100 | 45 | > 100 | 61.7 | 67.8 | 33 | > 100 | 76.3 | > 100 | > 100 | 42 | 48.4 |
| CSc1n[n+](C)cc(N)c1N | > 100 | > 100 | > 100 | > 100 | > 100 | > 100 | > 100 | > 100 | > 100 | > 100 | > 100 | > 100 | > 100 |
| Cc1ccc2c3c1O[C@H]1c4nc5ccccc5cc4C[C@@]4(O)[C@@H](C2)N(CC2CC2)CC[C@]314 | 25.8 | 23.5 | 19.4 | 15.5 | 46 | 22.3 | 22.2 | 50.9 | 54.6 | 31.3 | 18.3 | 25.9 | 23.5 |
| Cc1nc2ccccc2n1CCc1nc2ccccc2s1 | > 100 | > 100 | > 100 | 53.6 | > 100 | > 100 |  | > 100 | > 100 | > 100 | > 100 | > 100 | > 100 |
| Fc1cccc2nc(-c3ccccc3)cc(OCc3ccccc3)c12 | > 100 | > 100 |  | > 100 | > 100 | > 100 | > 100 | > 100 | > 100 | > 100 | > 100 | > 100 | > 100 |
| Cc1nc2c(Br)cc(Br)cc2c(=O)n1-c1ccccc1N | > 100 | > 100 | > 100 | > 100 | > 100 | > 100 | 83.8 | > 100 |  | > 100 | > 100 | > 100 | > 100 |
| COc1ccc(N=C/C=C/Nc2ccc(OC)cc2)cc1 | 29.6 | 24 | 24.1 | 22.9 | 9.99 | 16.3 | 10.8 | 11.2 | 27.4 | 34.3 | 5.48 | 23.2 | 27.5 |
| C=C(Br)CN(C#N)CC(=C)Br | > 100 | > 100 | > 100 | > 100 | > 100 | > 100 | > 100 | > 100 | > 100 | > 100 | > 100 | > 100 | > 100 |
| Cn1c2ccccc2n2c3nc4ccccc4nc3c(C#N)c12 | > 100 | > 100 | > 100 | > 100 | > 100 | > 100 | > 100 | > 100 | > 100 | > 100 | > 100 | > 100 | > 100 |
| CCn1c2c(c3c(C(=O)OC)c(O)ccc31)C(=O)c1ccccc1C2=O | 42.5 | 32.4 | 36 | 61.5 | 37.5 | 70.8 | 27.3 | 46.6 | > 100 | 30.4 | 33.8 | 28.3 |  |
| COc1ccc(CNc2nc3ccccc3nc2-c2cccs2)cc1 | > 100 | > 100 | > 100 | 45.4 | > 100 | > 100 | 71.1 | > 100 | > 100 | > 100 | > 100 |  | > 100 |
| Cc1nnc2c3c(-c4ccccc4)c(-c4ccccc4)oc3nc(N(C)C)n12 | > 100 | > 100 | > 100 | > 100 | > 100 | > 100 | > 100 | 67.2 | > 100 | > 100 | > 100 | > 100 | > 100 |
| COc1ccc(-c2cn3c(n2)sc2cc(C)ccc23)cc1 | > 100 | 63.2 | 33.7 | > 100 | 83.8 | 95.7 | > 100 | > 100 | 47.3 | 98.9 | > 100 | > 100 | 41.9 |
| Clc1ccc(-c2nc(-c3ccc(Cl)cc3)[s+]s2)cc1 | > 100 | > 100 | > 100 | > 100 | 98.9 | > 100 | > 100 | 94.2 | 86.5 | > 100 | > 100 | > 100 | > 100 |
| C=C1CCCCCCCCCCC1S(=O)c1ccccc1 (stereo not given) | > 100 | 59.3 | 37.2 | 78.5 | > 100 | 65.5 | 39.6 | 64.8 |  | 96.4 |  | 92.2 | > 100 |
| COC(=O)c1c(O)ccc2c1c1c(n2C)C(=O)c2ccccc2C1=O | > 100 | > 100 | 65.1 | 22.8 | 80.6 | > 100 | > 100 | > 100 | 86.4 | 21.5 | > 100 | > 100 |  |
| S=C1CC(c2ccc(Cl)cc2)Sc2ccccc2N1 (stereo not given) | > 100 | > 100 |  | > 10 | > 100 | > 100 | > 100 | > 100 | > 100 | 56.9 |  | > 100 | > 100 |
| O=c1[nH]cnc2c1ncn2[C@H]1CO[C@@H](CO)[C@@H]1O | > 100 | > 100 | > 100 | > 100 | > 100 | > 100 | > 100 | > 100 | > 100 | > 100 | > 100 |  | > 100 |
| O=[N+]([O-])C(=C(NCc1ccccc1)NCc1ccccc1)C(Cl)=C(Cl)Cl |  | 46.7 | > 100 | 52 | > 100 | > 100 | > 100 | 57.8 | > 100 | > 100 | > 100 | 75.8 | 98.7 |
| CC1(C)CCOC(=O)C(Cl)CC1Cl (stereo not given) | > 100 | > 100 | > 100 | > 100 | > 100 | > 100 |  | > 100 | > 100 | > 100 | > 100 | > 100 | > 100 |
| CC1CC[C@]2(C(=O)O)CCC3(C)C(=C2[C@H]1C)C=CC1[C@@]2(C)CC[C@H](O)C(C)(C)C2CC[C@]13C (stereo not given in full) | > 100 | > 100 | 50.9 | > 100 | > 100 | > 100 |  | 66.1 | > 100 | 45.5 | > 100 | > 100 | > 100 |
| O=C(CSc1nc2ccc(I)cc2c(=O)n1Cc1ccccc1)Nc1ccc(Br)cc1 | > 100 | > 100 | 6.1 | > 100 | > 100 | > 100 | 0.382 | 27.4 |  | > 100 | > 100 | > 100 | > 100 |
| O=S1(=O)c2ccccc2N2CCCc3cc(Cl)cc1c32 | > 100 | > 100 | > 100 | > 100 | > 100 | > 100 | > 100 | > 100 |  | > 100 | > 100 | > 100 | > 100 |
| CCOC(=O)/C(=C\c1ccc(CO)o1)P(=O)(OCC)OCC | > 100 | 86.9 | 40.3 | > 100 | 35.9 | > 100 |  | 71.6 | > 100 | > 100 | 60.9 | 98 | > 100 |
| CN(C)CCCOC(=O)C(O)(Cc1ccccc1)C1CC1 (stereo not given) | > 100 | > 100 | > 100 | > 100 | > 100 | > 100 |  | > 100 | > 100 | > 100 | > 100 | > 100 | > 100 |
| CC(=O)C(=C(I)I)c1ccccc1 | 45.7 | 29.9 | 38.9 | 43.2 | 31.3 | 46.8 | 33.8 | 35.5 |  | > 100 | 38.7 | 31.6 | 51.4 |
